Experimental data taken from patent publication US20210330611A1, “THERAPY FOR NEUROLOGICAL DISEASES/DISORDERS” (priority 2020, published 2021).
Structures can show the parent of a compound that is named as a salt. Where two headings read alike, the source gives them in different places.

Key:
[1] = system: fibrin- and LPS-induced microglia activation; test: cells; assay type: cell-based, rat
[2] = system: fibrin-induced microglia activation; test: Image-based assay of fibrin-induced microglia activation (HTS and dose response); assay type: cell-based, rat; conditions: for inhibition at 10 µM: Rattus norvegicus, Microglia, read-out: Fibrin % inhibition
[3] = system: LPS-induced microglia activation; test: Image-based assay of LPS-induced microglia activation (HTS and dose response); assay type: cell-based, rat; conditions: for inhibition at 10 µM: Rattus norvegicus, Microglia, read-out: LPS % inhibition
primary rat microglia [4] = test: Cell toxicity (dead cells, size <150 μm2) in coated fibrin (cFib) assay; conditions: for IC50: read-out: Cell Toxicity IC50 (uM) [cFib assay];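 on Fibrin % cell toxicity: share of dead cells sized under 150 µm2 at 10 µM in fibrin-stimulated microglia HTS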
primary rat microglia [5] = test: Cell toxicity (dead cells, size <150 μm2) in LPS assay; conditions: for IC50: read-out: Cell Toxicity IC50 (uM) [LPS assay]
[6] = primary HTS, 10 μM, fibrin-stimulated primary microglia
[7] = primary HTS, 10 μM, LPS-stimulated primary microglia
[8] = primary HTS, 10 μM, fibrin assay, dead cells size <150 μm2
[9] = primary HTS, 10 μM, LPS assay, dead cells size <150 μm2
[10] = quadrant by fibrin and LPS inhibition in HTS of 1907 compounds
[11] = primary microglia HTS, fibrin stimulation, increased cell size (>800 μm^2) as marker of activation
[12] = 48 h, primary microglia HTS, LPS stimulation, increased cell size (>800 μm^2) as marker of activation
[13] = primary microglia HTS, fibrin stimulation, decreased size (<150 μm^2) as marker of toxicity
[14] = primary microglia HTS, LPS stimulation, decreased size (<150 μm^2) as marker of toxicity
[15] = primary microglia HTS, fibrin stimulation, activation = cell size >800 μm2
[16] = 48 h, primary microglia HTS, LPS stimulation, activation = cell size >800 μm2
[17] = primary microglia HTS, fibrin stimulation, toxicity = cell size <150 μm2
[18] = primary microglia HTS, LPS stimulation, toxicity = cell size <150 μm2
[19] = primary microglia HTS, LPS stimulation, increased cell size (>800 μm^2) as marker of activation

Compound: CN1C(=O)CC[C@H]1c1cccnc1 [Cotinine]
- Quadrant (FIG. 5b) ([1]; primary HTS, 10 μM): Q4
- inhibition at 10 µM [2, 6]: -39%
- inhibition at 10 µM [3, 7]: 6%
- Fibrin % cell toxicity (primary rat microglia [4]; [8]): 1%
- LPS % cell toxicity (primary rat microglia [5]; [9]): 1%

Compound: COc1cc(CNC(=O)CCCC/C=C/C(C)C)ccc1O [Capsaicin]
- Quadrant (FIG. 5b) ([1]; primary HTS, 10 μM): Q4
- inhibition at 10 µM [2, 6]: -45%
- inhibition at 10 µM [3, 7]: 9%
- Fibrin % cell toxicity (primary rat microglia [4]; [8]): 1%
- LPS % cell toxicity (primary rat microglia [5]; [9]): 0%

Compound: O=[N+]([O-])c1ccc(O)c2ncccc12 [Nitroxoline]
- Quadrant (FIG. 5b) [1, 10]: Q4
- inhibition at 10 µM [2, 11]: -5%
- inhibition at 10 µM [3, 12]: -6%
- Fibrin % cell toxicity (primary rat microglia [4]; [13]): 1%
- LPS % cell toxicity (primary rat microglia [5]; [14]): 0%

Compound: NP(N)(=O)NC(=O)c1ccc(F)cc1 [Flurofamide]
- Quadrant (FIG. 5b) [1, 10]: Q4
- inhibition at 10 µM [2, 15]: 3%
- inhibition at 10 µM [3, 16]: -12%
- Fibrin % cell toxicity (primary rat microglia [4]; [17]): 0%
- LPS % cell toxicity (primary rat microglia [5]; [18]): 0%

Compound: CCC(=O)OCC(=O)[C@@]1(OC(=O)CC)[C@H](C)C[C@H]2[C@H]3[C@H]([C@@H](O)C[C@@]21C)[C@@]1(C)C=CC(=O)C=C1C[C@H]3Cl [Alclometazone dipropionate, reference compound]
- Hit ([1]; HTS hit classification): HIT (Hits were defined as molecules that exhibited greater than 50% inhibition of either fibrin or LPS activation)
- Quadrant (FIG. 5b) ([1]; HTS of 1907 compounds, quadrant by fibrin and LPS inhibition): Q2
- Quadrant (FIG. 5b) ([1]; Table 1, screen at 10 μM): Q2
- Cherry-picked Hit (Suppl. Table 7) ([1]; Table 3): HIT (Hits were defined as molecules that exhibited greater than 50% inhibition of either fibrin or LPS activation)
- Quadrant (FIG. 5b) ([1]; Table 3, screen at 10 μM): Q2
- Cherry-picked Hit (Suppl. Table 7) ([1]; hit classification in microglia HTS): HIT (Hits were defined as molecules that exhibited greater than 50% inhibition of either fibrin or LPS activation)
- Cherry-picked Hit (Suppl. Table 7) ([1]; microglia HTS, Table 6): HIT (Hits were defined as molecules that exhibited greater than 50% inhibition of either fibrin or LPS activation)
- Quadrant (FIG. 5b) ([1]; microglia HTS, Table 6): Q2
- Quadrant (FIG. 5b) [1, 10]: Q2
- Fibrin Selectivity (LOG10) [2]: 3.33
- IC50 ([2]; Table 1, dose response 0.001-20 μM, triplicates, primary rat microglia, 48 h, read-out: Fibrin IC50): < 0.001 µM
- IC50 ([2]; Table 3, read-out: Fibrin IC50 (uM) (Suppl. Table 7)): < 0.001 µM
- IC50 ([2]; Table 6, read-out: Fibrin IC50 (uM) (Suppl. Table 7)): < 0.001 µM
- IC50 ([2]; dose response, fibrin-induced microglia activation, read-out: Fibrin IC50): < 0.001 µM
- Fibrin Selectivity (LOG10) ([2]; fibrin vs LPS, LOG10, Table 6): 3.33
- Fibrin Selectivity ([2]; fibrin vs LPS, Table 6): 2153
- IC50 ([2]; fibrin-induced microglia activation, dose response, read-out: Fibrin IC50 (uM) (Suppl. Table 7)): < 0.001 µM
- Fibrin Selectivity ([2]; listed as Alclometazone Dipropion): ≥ 2153
- Fibrin Selectivity ([2]; listed as Alclometazone Dipropionate): 2153
- Fibrin % inhibition [2, 11]: 105%
- IC50 ([3]; LPS-induced microglia activation, dose response, read-out: LPS IC50 (uM) (Suppl. Table 7)): 2 µM
- IC50 ([3]; Table 1, dose response 0.001-20 μM, triplicates, primary rat microglia, 48 h, read-out: LPS IC50): 2 µM
- IC50 ([3]; Table 3, read-out: LPS IC50 (uM) (Suppl. Table 7)): 2 µM
- IC50 ([3]; Table 6, read-out: LPS IC50 (uM) (Suppl. Table 7)): 2 µM
- IC50 ([3]; dose response, LPS-induced microglia activation, read-out: LPS IC50): 2 µM
- LPS % inhibition [3, 19]: 82%
- Fibrin % cell toxicity (primary rat microglia [4]; [13]): 2%
- IC50 (primary rat microglia [4]; Table 3): > 20 µM
- IC50 (primary rat microglia [4]; cFib assay): > 20 µM
- IC50 (primary rat microglia [4]; cFib assay, Table 6): > 20 µM
- LPS % cell toxicity (primary rat microglia [5]; [14]): 2%
- IC50 (primary rat microglia [5]; LPS assay): > 20 µM
- IC50 (primary rat microglia [5]; LPS assay, Table 6): > 20 µM
- IC50 (primary rat microglia [5]; Table 3): > 20 µM

Compound: CCCc1nc(C(C)(C)O)c(C(=O)O)n1Cc1ccc(-c2ccccc2-c2nnn[nH]2)cc1 [Olmesartan]
- Quadrant (FIG. 5b) [1, 10]: Q4
- inhibition at 10 µM [2, 11]: -13%
- inhibition at 10 µM [3, 12]: 18%
- Fibrin % cell toxicity (primary rat microglia [4]; [13]): 0%
- LPS % cell toxicity (primary rat microglia [5]; [14]): 0%

Compound: OCc1ccccc1 [Benzyl Alcohol]
- Quadrant (FIG. 5b) ([1]; primary HTS, 10 μM): Q4
- inhibition at 10 µM [2, 6]: -54%
- inhibition at 10 µM [3, 7]: 11%
- Fibrin % cell toxicity (primary rat microglia [4]; [8]): 0%
- LPS % cell toxicity (primary rat microglia [5]; [9]): 0%

Compound: COc1ccc2[nH]cc(CCNC(C)=O)c2c1 [Melatonin]
- Quadrant (FIG. 5b) [1, 10]: Q4
- inhibition at 10 µM [2, 11]: 4%
- inhibition at 10 µM [3, 12]: -3%
- Fibrin % cell toxicity (primary rat microglia [4]; [13]): 1%
- LPS % cell toxicity (primary rat microglia [5]; [14]): 0%

Compound: CCC(=O)O[C@H](CC(=O)O)C[N+](C)(C)C [Levocarnitine Propionate Hydrochloride]
- Quadrant (FIG. 5b) [1, 10]: Q4
- inhibition at 10 µM [2, 15]: -16%
- inhibition at 10 µM [3, 16]: 12%
- Fibrin % cell toxicity (primary rat microglia [4]; [17]): 1%
- LPS % cell toxicity (primary rat microglia [5]; [18]): 1%

Compound: NC(=O)N1c2ccccc2C=Cc2ccccc21 [Carbamazepine]
- Quadrant (FIG. 5b) ([1]; primary HTS, 10 μM): Q4
- inhibition at 10 µM [2, 6]: -25%
- inhibition at 10 µM [3, 7]: 4%
- Fibrin % cell toxicity (primary rat microglia [4]; [8]): 0%
- LPS % cell toxicity (primary rat microglia [5]; [9]): 0%

Compound: CCC(=O)O[C@@H](O[P@](=O)(CCCCc1ccccc1)CC(=O)N1C[C@H](C2CCCCC2)C[C@H]1C(=O)O)C(C)C [Fosinopril]
- Quadrant (FIG. 5b) [1, 10]: Q4
- inhibition at 10 µM [2, 15]: -52%
- inhibition at 10 µM [3, 16]: -1%
- Fibrin % cell toxicity (primary rat microglia [4]; [17]): 1%
- LPS % cell toxicity (primary rat microglia [5]; [18]): 0%

Compound: CN1CCC(=C2c3ccccc3CC(=O)c3sccc32)CC1 [Ketotifen]
- Quadrant (FIG. 5b) [1, 10]: Q4
- inhibition at 10 µM [2, 15]: 1%
- inhibition at 10 µM [3, 16]: 15%
- Fibrin % cell toxicity (primary rat microglia [4]; [17]): 1%
- LPS % cell toxicity (primary rat microglia [5]; [18]): 0%

Compound: O=C1CN=C(c2ccccc2Cl)c2cc([N+](=O)[O-])ccc2N1 [Clonazepam]
- Quadrant (FIG. 5b) ([1]; primary HTS, 10 μM): Q4
- inhibition at 10 µM [2, 6]: -12%
- inhibition at 10 µM [3, 7]: -9%
- Fibrin % cell toxicity (primary rat microglia [4]; [8]): 0%
- LPS % cell toxicity (primary rat microglia [5]; [9]): 0%

Compound: OC[C@@H](O)[C@@H](O)[C@H](O)[C@H](O)CO [Mannitol]
- Quadrant (FIG. 5b) [1, 10]: Q4
- inhibition at 10 µM [2, 11]: 5%
- inhibition at 10 µM [3, 12]: 0%
- Fibrin % cell toxicity (primary rat microglia [4]; [13]): 1%
- LPS % cell toxicity (primary rat microglia [5]; [14]): 0%

Compound: COC(=O)C1=C(C)NC(C)=C(C(=O)OCCN2CCN(C(c3ccccc3)c3ccccc3)CC2)C1c1cccc([N+](=O)[O-])c1 (centres unmarked) [Manidipine Hydrochloride]
- Quadrant (FIG. 5b) [1, 10]: Q4
- inhibition at 10 µM [2, 11]: -43%
- inhibition at 10 µM [3, 12]: 12%
- Fibrin % cell toxicity (primary rat microglia [4]; [13]): 1%
- LPS % cell toxicity (primary rat microglia [5]; [14]): 1%

Compound: CC(C)(C)NCC(O)COc1cccc2c1CCC(=O)N2 (centres unmarked) [Carteolol]
- Quadrant (FIG. 5b) ([1]; primary HTS, 10 μM): Q4
- inhibition at 10 µM [2, 6]: 12%
- inhibition at 10 µM [3, 7]: 7%
- Fibrin % cell toxicity (primary rat microglia [4]; [8]): 0%
- LPS % cell toxicity (primary rat microglia [5]; [9]): 0%

Compound: CNCCc1ccccn1 [Betahistine]
- Quadrant (FIG. 5b) ([1]; primary HTS, 10 μM): Q4
- inhibition at 10 µM [2, 6]: -29%
- inhibition at 10 µM [3, 7]: 13%
- Fibrin % cell toxicity (primary rat microglia [4]; [8]): 1%
- LPS % cell toxicity (primary rat microglia [5]; [9]): 0%

Compound: N=C(NCCCCCCNC(=N)NC(=N)Nc1ccc(Cl)cc1)NC(=N)Nc1ccc(Cl)cc1
- Quadrant (FIG. 5b) [1, 10]: Q1
- Fibrin % inhibition [2, 11]: 15%
- LPS % inhibition [3, 19]: 69%
- Fibrin % cell toxicity (primary rat microglia [4]; [13]): 1%
- LPS % cell toxicity (primary rat microglia [5]; [14]): 8%
